Reference: US20200131669A1, “CYCLIC PEPTIDE COMPOUND HAVING HIGH MEMBRANE PERMEABILITY, AND LIBRARY CONTAINING SAME” (Chugai Seiyaku Kabushiki Kaisha, priority 2017, published 2020)
Starred links: 1 amine or outer side, 2 acyl side, 3 side chain; linkers in the order of their positions; H or OH if unused. Positions of bridges follow the written chain, without caps; N, C: chain ends. Non-standard residues stand in square brackets, D forms with d. Residues, ends and D or L forms follow the SMILES beside them. ξ: configuration not given here. *: point of attachment. NMeAbu(3,3-F2-piperidino) = CN[C@@H](CCN1CCCC(F)(F)C1)C(=O)O; NMeAbu(4-morpholino) = CN[C@@H](CCN1CCOCC1)C(=O)O; Phe(4-CF3) = N[C@@H](Cc1ccc(C(F)(F)F)cc1)C(=O)O; NMePhe(4-Cl) = CN[C@@H](Cc1ccc(Cl)cc1)C(=O)O; dNMehPhe = CN[C@H](CCc1ccccc1)C(=O)O; Ethyl(2-morpholino) = C1CN(CC*)CCO1; X3 = O=C([C@H](CCCCO)N[*:1])[*:2]; Gly(N-(CH2)2OEt) = CCOCCNCC(=O)O; Hyp = O=C(O)[C@@H]1C[C@@H](O)CN1; NMeF = CN[C@@H](Cc1ccccc1)C(=O)O; NMeGABA = CN(CCCC(=O)[*:2])[*:1]; hPhe = N[C@@H](CCc1ccccc1)C(=O)O; NMeL = CN[C@@H](CC(C)C)C(=O)O; NMeV = CN[C@H](C(=O)O)C(C)C; NPentylGly = CCCCCNCC(=O)O; NMeA = CN[C@@H](C)C(=O)O; Piperidide = C1CCN(*)CC1; dAbu = CC[C@@H](N)C(=O)O; Abu = CC[C@H](N)C(=O)O; NBuGly = CCCCNCC(=O)O; NPrGly = CCCNCC(=O)O; ξS = NC(CO)C(=O)O; Sar = CNCC(=O)O; tBu = CC(C)(C)*

Experiment: Caco-2 membrane permeability, improved method as used in the following Examples (96-well, 20 to 24 h preincubation)
Format: in vitro ADME
Conditions: human, Caco-2, Caco-2
Procedure, shortened: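 Papp (cm/sec) was derived from LC/MS of basal samples collected 180 min after apical dosing in FaSSIF/HBSS pH 6.0 with 1% DMSO, against a basal HBSS pH 7.4 receiver containing 4% BSA. Three-week Caco-2 cultures were first preincubated with compound in DMEM+FaSSIF at 37 °C for 20–24 h.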
CCCCCN1CC(=O)N[C@@H]([C@@H](C)O)C(=O)N(C)[C@@H](C)C(=O)N(C)[C@@H](CC(C)C)C(=O)N[C@@H](COC(C)(C)C)C(=O)N(C)[C@@H](Cc2ccccc2)C(=O)N(C)[C@@H](CC(C)C)C(=O)N[C@H](C(=O)N2CCCCC2)CC(=O)N[C@H](C)C(=O)N(C)[C@@H](Cc2ccccc2)C(=O)N[C@@H](C(C)C)C1=O [pd407] ([dA][NMeF]V[NPentylGly]T[NMeA][NMeL]S(tBu)[NMeF][NMeL]D-Piperidide; lactam N-11) showed a Papp A→B at 180 min of 3 ×10⁻⁶ cm/s. With CC(C)C[C@H]1C(=O)N[C@H](C(=O)N2CCCCC2)CC(=O)N(C)CCCC(=O)N(C)[C@@H](CC(C)C)C(=O)N[C@@H](CCc2ccccc2)C(=O)N(C)[C@@H](CC(C)C)C(=O)N(C)[C@@H](Cc2ccccc2)C(=O)N[C@@H](COC(C)(C)C)C(=O)N(C)[C@@H](CC(C)C)C(=O)N[C@@H]([C@@H](C)O)C(=O)N(C)CC(=O)N1C [pd317] ([NMeGABA][NMeL][hPhe][NMeL][NMeF]S(tBu)[NMeL]T[Sar][NMeL]D-Piperidide; lactam N-11) the Papp A→B at 180 min was 1.8 ×10⁻⁶ cm/s. For CCCCN1CC(=O)N(C)[C@@H](C(C)C)C(=O)N[C@H](C(=O)N2CCCCC2)CC(=O)N(C)[C@@H](C)C(=O)N[C@@H](CC(C)C)C(=O)N(C)[C@@H](CC(C)C)C(=O)N(C)[C@@H](Cc2ccccc2)C(=O)N[C@@H](CC(C)C)C(=O)N(C)[C@@H](Cc2ccccc2)C(=O)N(C)[C@@H](CCN2CCOCC2)C(=O)N[C@@H]([C@@H](C)O)C1=O [pd453] ([NMeA]L[NMeL][NMeF]L[NMeF][NMeAbu(4-morpholino)]T[NBuGly][NMeV]D-Piperidide; lactam N-11), the Papp A→B at 180 min was 2.3 ×10⁻⁶ cm/s. Work on CCCCN1CC(=O)N(C)[C@@H](Cc2ccccc2)C(=O)N(C)[C@@H](CC(C)C)C(=O)N[C@@H](C(C)C)C(=O)N(C)[C@@H](CC(C)C)C(=O)N[C@H](C(=O)N2CCCCC2)CC(=O)N(C)CC(=O)N(C)[C@@H](CC(C)C)C(=O)NC(COCCN2CCOCC2)C(=O)N(C)[C@@H](CC(C)C)C(=O)N[C@@H]([C@@H](C)O)C1=O (stereo partly drawn) [pd484] ([Sar][NMeL][ξS](Ethyl(2-morpholino))[NMeL]T[NBuGly][NMeF][NMeL]V[NMeL]D-Piperidide; lactam N-11) yielded a Papp A→B at 180 min of 1.8 ×10⁻⁶ cm/s. Work on CCOCCN1CC(=O)N(C)[C@@H](Cc2ccccc2)C(=O)N(C)[C@@H](CC(C)C)C(=O)N[C@@H](COC(C)(C)C)C(=O)N(C)[C@@H](CC(C)C)C(=O)N[C@H](C(=O)N2CCCCC2)CC(=O)N(C)CC(=O)N(C)[C@@H](Cc2ccccc2)C(=O)N[C@@H](C(C)C)C(=O)N(C)[C@@H](CC(C)C)C(=O)N[C@@H]([C@@H](C)O)C1=O [pd418] ([Sar][NMeF]V[NMeL]T[Gly(N-(CH2)2OEt)][NMeF][NMeL]S(tBu)[NMeL]D-Piperidide; lactam N-11) yielded a Papp A→B at 180 min of 1.5 ×10⁻⁶ cm/s. CCO[C@@H]1C[C@H]2C(=O)N[C@@H](Cc3ccccc3)C(=O)N(C)[C@@H](CC(C)C)C(=O)N[C@H](C(=O)N3CCCCC3)CC(=O)N[C@H](CC)C(=O)N(C)[C@@H](CC(C)C)C(=O)N[C@@H](COC(C)(C)C)C(=O)N(C)[C@@H](CC(C)C)C(=O)N[C@@H](CC(C)C)C(=O)N(C)[C@@H](CC(C)C)C(=O)N[C@@H]([C@@H](C)O)C(=O)N2C1 [pd375] ([dAbu][NMeL]S(tBu)[NMeL]L[NMeL]T[Hyp](Et)F[NMeL]D-Piperidide; lactam N-11) showed a Papp A→B at 180 min of 2.9 ×10⁻⁶ cm/s. With CC[C@@H]1NC(=O)[C@@H](CCc2ccccc2)N(C)C(=O)[C@H](CC(C)C)N(C)C(=O)[C@H](CC(C)C)NC(=O)[C@H](C)N(C)C(=O)C[C@@H](C(=O)N2CCCCC2)NC(=O)[C@H](CC(C)C)N(C)C(=O)CN(C)C(=O)[C@H]([C@@H](C)O)NC(=O)[C@H](CC(C)C)N(C)C(=O)[C@H](Cc2ccccc2)N(C)C1=O [pd322] ([NMeA]L[NMeL][dNMehPhe][Abu][NMeF][NMeL]T[Sar][NMeL]D-Piperidide; lactam N-11) the Papp A→B at 180 min was 3.1 ×10⁻⁶ cm/s. For CC(C)C[C@@H]1NC(=O)[C@H](Cc2ccccc2)N(C)C(=O)[C@@H](C(C)C)NC(=O)C[C@@H](C(=O)N2CCCCC2)NC(=O)[C@H](C(C)C)N(C)C(=O)[C@H](Cc2ccccc2)N(C)C(=O)[C@H](COC(C)(C)C)NC(=O)[C@H](CCN2CCCC(F)(F)C2)N(C)C(=O)CN(C)C(=O)[C@H]([C@@H](C)O)NC(=O)[C@H](CC(C)C)N(C)C1=O [pd387] ([dV][NMeF]L[NMeL]T[Sar][NMeAbu(3,3-F2-piperidino)]S(tBu)[NMeF][NMeV]D-Piperidide; lactam N-11), the Papp A→B at 180 min was 3.5 ×10⁻⁶ cm/s.

Same assay, conditions: human, Caco-2, Caco-2 (cm/sec)
CC(C)C[C@H]1C(=O)N[C@H](C(=O)N(C)[C@@H](Cc2ccccc2)C(=O)N[C@@H](C)C(=O)N2CCCCC2)CC(=O)N(C)[C@@H](C)C(=O)N[C@@H]([C@@H](C)O)C(=O)N(C)[C@@H](C)C(=O)N(C)[C@@H](CC(C)C)C(=O)N[C@@H](C(C)C)C(=O)N(C)[C@@H](Cc2ccccc2)C(=O)N[C@@H](Cc2ccccc2)C(=O)N1C [pd212] ([NMeA]T[NMeA][NMeL]V[NMeF]F[NMeL]D[NMeF]A-Piperidide; lactam N-9) showed a Papp A→B at 180 min of 1.4 ×10⁻⁶ cm/s. Work on CC[C@H](C)[C@@H]1NC(=O)[C@H](Cc2ccccc2)N(C)C(=O)CN(C)C(=O)C[C@@H](C(=O)N2CCCCC2)NC(=O)[C@H](C(C)C)N(C)C(=O)[C@H](COC(C)(C)C)NC(=O)[C@H](CC(C)C)N(C)C(=O)[C@H](Cc2ccc(Cl)cc2)N(C)C(=O)CN(C)C(=O)[C@H]([C@@H](C)O)NC(=O)[C@H](CC(C)C)N(C)C1=O [pd175] ([Sar][NMeF]I[NMeL]T[Sar][NMePhe(4-Cl)][NMeL]S(tBu)[NMeV]D-Piperidide; lactam N-11) yielded a Papp A→B at 180 min of 1.1 ×10⁻⁶ cm/s. With CCCN1CC(=O)N(C)[C@@H](Cc2ccccc2)C(=O)N[C@@H]([C@@H](C)CC)C(=O)N(C)[C@@H](Cc2ccccc2)C(=O)N[C@@H]([C@@H](C)O)C(=O)N(C)CC(=O)N(C)[C@@H](Cc2ccccc2)C(=O)N(C)[C@@H](CC(C)C)C(=O)N[C@@H](COC(C)(C)C)C(=O)N(C)[C@@H](C(C)C)C(=O)N[C@H](C(=O)N2CCCCC2)CC1=O [pd195] ([NPrGly][NMeF]I[NMeF]T[Sar][NMeF][NMeL]S(tBu)[NMeV]D-Piperidide; lactam N-11) the Papp A→B at 180 min was 5 ×10⁻⁶ cm/s. CC(C)C[C@@H]1NC(=O)[C@H](Cc2ccccc2)N(C)C(=O)[C@H](C)NC(=O)C[C@@H](C(=O)N2CCCCC2)NC(=O)[C@H](Cc2ccccc2)N(C)C(=O)[C@H](Cc2ccccc2)N(C)C(=O)[C@H](COC(C)(C)C)NC(=O)[C@H](CC(C)C)N(C)C(=O)CN(C)C(=O)[C@H]([C@@H](C)O)NC(=O)[C@H](CC(C)C)N(C)C1=O [pd217] (A[NMeF]L[NMeL]T[Sar][NMeL]S(tBu)[NMeF][NMeF]D-Piperidide; lactam N-11) gave a Papp A→B at 180 min of 1.1 ×10⁻⁶ cm/s. In the case of CC(C)C[C@H]1C(=O)N[C@@H](COC(C)(C)C)C(=O)N(C)[C@@H](Cc2ccccc2)C(=O)N(C)[C@@H](C(C)C)C(=O)N[C@H](C(=O)N2CCCCC2)CC(=O)N[C@H](C(C)C)C(=O)N(C)[C@@H](C)C(=O)N[C@@H](C(C)C)C(=O)N(C)[C@@H](CC(C)C)C(=O)N[C@@H](Cc2ccc(O)cc2)C(=O)N(C)CC(=O)N1C [pd121] ([dV][NMeA]V[NMeL]Y[Sar][NMeL]S(tBu)[NMeF][NMeV]D-Piperidide; lactam N-11), the Papp A→B at 180 min is reported as 1 ×10⁻⁶ cm/s. In the case of CC[C@H](C)[C@@H]1NC(=O)[C@H](CC(C)C)N(C)C(=O)[C@@H](C)NC(=O)C[C@@H](C(=O)N2CCCCC2)NC(=O)[C@H](C(C)C)N(C)C(=O)[C@H](CC(C)C)N(C)C(=O)[C@H](COC(C)(C)C)NC(=O)[C@H](CC(C)C)N(C)C(=O)CN(C)C(=O)[C@H](Cc2c[nH]c3ccccc23)NC(=O)[C@H](CC(C)C)N(C)C1=O [pd108] ([dA][NMeL]I[NMeL]W[Sar][NMeL]S(tBu)[NMeL][NMeV]D-Piperidide; lactam N-11), the Papp A→B at 180 min is reported as 0.87 ×10⁻⁶ cm/s.

Same assay, conditions: human, Caco-2, improved method, preincubation 20 to 24 hours; Papp, sample at 180 minutes; read-out: Caco-2
In the case of CC(C)C[C@@H]1NC(=O)[C@H](Cc2ccc(Cl)cc2)N(C)C(=O)[C@H](CC(C)C)N(C)C(=O)[C@H](C(C)C)NC(=O)[C@H](C)N(C)C(=O)C[C@@H](C(=O)N2CCCCC2)NC(=O)[C@H](CC(C)C)N(C)C(=O)CN(C)C(=O)[C@H]([C@@H](C)O)NC(=O)[C@H](CC(C)C)N(C)C(=O)[C@H](Cc2ccccc2)N(C)C1=O [pd174] ([NMeA]V[NMeL][NMePhe(4-Cl)]L[NMeF][NMeL]T[Sar][NMeL]D-Piperidide; lactam N-11), the Papp A→B at 180 min is reported as 1.3 ×10⁻⁶ cm/s. Work on CCCN1CC(=O)N[C@@H]([C@@H](C)O)C(=O)N[C@H](C(=O)N2CCCCC2)CC(=O)N(C)[C@@H](CC(C)C)C(=O)N[C@@H](Cc2ccc(C(F)(F)F)cc2)C(=O)N(C)[C@@H](CC(C)C)C(=O)N(C)[C@@H](CC(C)C)C(=O)N[C@@H](COC(C)(C)C)C1=O [pd147] ([NMeL][Phe(4-CF3)][NMeL][NMeL]S(tBu)[NPrGly]TD-Piperidide; lactam N-8) yielded a Papp A→B at 180 min of 1.9 ×10⁻⁶ cm/s.

Same assay, conditions: human; Papp, Caco-2 membrane permeability, improved method; read-out: Caco-2
In the case of CC(C)C[C@H]1C(=O)N[C@@H](C(C)C)C(=O)N(C)[C@@H](Cc2ccccc2)C(=O)N(C)[C@@H](Cc2ccccc2)C(=O)N[C@@H](COC(C)(C)C)C(=O)N(C)[C@@H](CC(C)C)C(=O)N[C@@H](CCCCO)C(=O)N(C)[C@@H](CC(C)C)C(=O)N(C)[C@@H](CC(C)C)C(=O)N[C@H](C(=O)N2CCCCC2)CC(=O)N(C)CCCC(=O)N1C [pd446] ([NMeGABA][NMeL]V[NMeF][NMeF]S(tBu)[NMeL][X3][NMeL][NMeL]D-Piperidide; lactam N-11), the Papp A→B at 180 min is reported as 1.3 ×10⁻⁶ cm/s.
